Source: patent US12065416B2, “cGAS antagonist compounds” (IMMUNESENSOR THERAPEUTICS, INC., priority 2016, dated 2024)

Assays:
[1] = target: T1, recombinant cGAS (aa147-522) (Homo sapiens, UniProt Q8N884); test: In vitro assay for inhibition of cGAS activity (ATP consumption, Kinase Glo); type: biochemical; conditions: 37° C. 20 minutes, read-out: Activity (Inhibition of cGAS enzyme activity in vitro, IC50)
T1 construct: recombinant cGAS (aa147-522); His6-SUMO (N, cleaved yes); made in house; host or cells: E. coli BL21/pLys
Description: cDNA encoding full-length or amino acids 147-520 of human cGAS is inserted into a modified pET28a vector containing an in-frame His6-SUMO tag. The E. coli strain BL21/pLys harboring the plasmid is induced with 0.5 mM IPTG at 18° C. overnight. His6-SUMO tag was removed by a SUMO proease following purification of the HiS-SUMO-cGAS as described previously (Sun et al, 2013, Science 339, 786).
A40 μL mixture containing 1.5 ng/μL of recombinant cGAS (aa147-522) and serial dilutions of a test compound or DMSO was added to a 96-well plate and incubated at 37° C. for 20 minutes. At the end of reaction, 20 μL of Kinase Glo (Promega) was added and chemiluminescence measured with a luminometer. Inhibitory effect of a compound is evaluated by plotting percentage of ATP consumption against logarithm of compound concentrations. IC50 value was calculated using Graphpad (Sigma).

[2] = system: RIG-I-MAVS pathway; test: Specificity assay: ISRE reporter THP1 cells infected with Sendai Virus (SeV); type: cell-based; conditions: Homo sapiens, THP-1; ISRE-Gaussia luciferase reporter THP1 cells infected with Sendai Virus (SeV) at 50 Unit/mL
Description: (§1) A reporter THP1 cell line harboring a gene encoding Gaussia Luciferase under the control of 5 tandem repeats of interferon-stimulated response elements (ISRE) was used to test inhibition of cGAS activity by synthetic compounds in human cells. These cells were plated on 96-well plates at 0.3×10^6/well and incubated with various concentrations of compounds or DMSO for 5 min, followed by transfection of 2 μg/mL of ISD (Interferon Stimulatory DNA, a 45 bp DNA oligo) or mock transfected using lipofectamine 2000 (Life Technology) method, according to manufacturer's instructions. 16 hours later, 15 μL of the media from each well is transferred to a new plate, 50 μL of solution containing 50 mM Hepes-NaOH, 50 mM NaCl, 10 mM EDTA, 1 μM of coeleanterazine was added to each well and luminescence was measured immediately. Fold increase in luminescence compared to mock transfection is plotted against concentrations of each compound, and IC50 is calculated using Graphpad. To evaluate the specificity of a compound, the same procedure was performed except that cells were transfected with 2 μg/mL poly(I:C) or infected with Sendai Virus (SeV) at 50 Unit/mL, which are known to activate the RIG-I-MAVS pathway. A specific inhibitory compound should inhibit interferon induction by DNA but have minimal effect on poly(I:C) or Sendai virus induced interferon reporter gene expression.

[3] = system: cGAS activity in THP1 cells; test: Cellular assay: ISRE-Gaussia luciferase reporter THP1 cells transfected with ISD (Interferon Stimulatory DNA); type: cell-based; conditions: Homo sapiens, THP-1; ISRE-Gaussia luciferase reporter THP1 cells transfected with 2 μg/mL ISD, 16 hours; read-out: THP1-ISD (Inhibition of cGAS activity in THP1 cells, IC50)
Description: as §1

T1 sequence (Q8N884 147-522): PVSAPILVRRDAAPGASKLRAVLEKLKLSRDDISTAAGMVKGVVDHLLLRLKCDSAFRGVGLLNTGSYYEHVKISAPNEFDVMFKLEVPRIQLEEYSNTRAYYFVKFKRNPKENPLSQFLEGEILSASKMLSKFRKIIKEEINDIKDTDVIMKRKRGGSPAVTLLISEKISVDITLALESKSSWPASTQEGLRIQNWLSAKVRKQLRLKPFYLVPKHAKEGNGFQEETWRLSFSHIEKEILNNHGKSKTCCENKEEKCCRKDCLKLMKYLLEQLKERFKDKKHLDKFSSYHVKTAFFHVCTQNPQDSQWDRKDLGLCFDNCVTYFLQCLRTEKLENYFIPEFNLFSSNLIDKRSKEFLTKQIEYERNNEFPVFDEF

SMILES	IC50 [1] [µM]	IC50 [2] [µM]	IC50 [3] [µM]
CNc1ncc(COc2cc(/C=C3\Sc4ncccc4C3=O)c(Br)c(F)c2O)cn1 [ExA1]	≤ 0.5	≥ 10	2.5 to 10
O=C1/C(=C/c2cc(OCc3cnc(NCc4ccccn4)nc3)c(O)c(F)c2Br)Sc2ncccc21 [ExA2]	≤ 0.5	≥ 10	≥ 10
Nc1ncc(COc2cc(/C=c3\sc4nccn4c3=O)c(Br)cc2O)cn1 [ExA11]	0.5 to 10		≤ 2.5
CN1C(=O)S/C(=C\c2cc(OCc3cnc(Cl)nc3)c(O)c(F)c2Br)C1=O [Ex107]	0.5 to 10		2.5 to 10
CN1C(=O)S/C(=C\c2cc(OC(F)(F)F)c(O)cc2Br)C1=O [Ex57]	0.5 to 10	2.5 to 10	≤ 2.5
CN1C(=O)S/C(=C\c2cc(OCc3ncc(N)cn3)c(O)cc2Br)C1=O [Ex139]	0.5 to 10	≥ 10	2.5 to 10
CN1C(=O)S/C(=C\c2cc(OCc3cncnc3)c(O)c(F)c2Br)C1=O [Ex185]	≤ 0.5		2.5 to 10
CN1C(=O)S/C(=C\c2cc(OCc3cnc([S+](C)[O-])nc3N)c(O)c(F)c2Br)C1=O (stereo not drawn) [ExA14]	≤ 0.5		≥ 10
COCCNc1ncc(COc2cc(/C=C3\SC(=O)N(C)C3=O)c(Br)c(F)c2O)cn1 [Ex153]	≤ 0.5	≥ 10	2.5 to 10
O=C1/C(=C/c2cc(OCc3cccnc3)c(O)cc2Br)Sc2ncccc21 [Ex113]	≤ 0.5		2.5 to 10
Cc1nc(N)ncc1COc1cc(/C=C2\Sc3ncccc3C2=O)c(Br)cc1O [Ex116]	≤ 0.5		≤ 2.5
CN1C(=O)S/C(=C\c2cc(OCc3cccc4[nH]ccc34)c(O)cc2Br)C1=O [Ex67]	0.5 to 10		2.5 to 10
COc1cc(/C=C2\SC(=O)N(C)C2=O)c(Br)cc1NS(=O)(=O)c1cnc(N)s1 [Ex61]	0.5 to 10		≤ 2.5
CC(Oc1cc(/C=C2\Sc3ncccc3C2=O)c(Br)c(F)c1O)c1cnc(N)nc1 (stereo not drawn) [Ex124]	≤ 0.5		2.5 to 10
CCN1C(=O)S/C(=C\c2cc(OC)c(O)cc2Br)C1=O [Ex39]	0.5 to 10		2.5 to 10
Cc1ncc(COc2cc(/C=C3\SC(=O)N(C)C3=O)c(Br)c(F)c2O)c(N)n1 [ExA5]	≤ 0.5		2.5 to 10
CN1C(=O)S/C(=C\c2cc(OCc3cnc(Cl)nc3N)c(O)c(F)c2Br)C1=O [ExA19]	≤ 0.5		2.5 to 10
COc1cc(/C=C2\SC(=S)N(C)C2=O)c(Br)cc1O [Ex38]	≤ 0.5		2.5 to 10
O=C1/C(=C/c2cc(OCc3cnc(Cl)nc3)c(O)cc2Br)Sc2ncccc21 [Ex115]	≤ 0.5		2.5 to 10
COc1cc(/C=c2\sc3nccn3c2=O)c(Br)cc1O [Ex16]	≤ 0.5		2.5 to 10
CC(Oc1cc(/C=C2\Sc3ncccc3C2=O)c(Br)cc1O)c1cnc(NCCO)nc1 (stereo not drawn) [ExA9]	≤ 0.5		2.5 to 10
CCOc1cc(/C=C2\Sc3ncccc3C2=O)c(Br)cc1O [Ex112]	≤ 0.5		2.5 to 10

SMILES	IC50 [1] [µM]	IC50 [2] [µM]	IC50 [3] [µM]
CN1C(=O)S/C(=C\c2cc(OCc3cnc(NCc4cccnc4)nc3)c(O)c(F)c2Br)C1=O [Ex189]	0.5 to 10		2.5 to 10
CC(Oc1cc(/C=C2\Sc3ncc(F)cc3C2=O)c(Br)c(F)c1O)c1cnc(N)nc1 (stereo not drawn) [ExA13]	≤ 0.5		2.5 to 10
Nc1ncc(COc2cc(/C=C3\Sc4ncccc4C3=O)c(Br)cc2O)c(C2CC2)n1 [Ex117]	≤ 0.5		2.5 to 10
CN1C(=O)S/C(=C\c2cc(OCc3cccnc3)c(O)c(F)c2Br)C1=O [Ex106]	≤ 0.5		2.5 to 10
C#CCOc1cc(/C=C2\SC(=O)N(C)C2=O)c(Br)cc1O [Ex33]	0.5 to 10		2.5 to 10
CC(Oc1cc(/C=c2\sc3nccn3c2=O)c(Br)c(F)c1O)c1cnc(N)nc1 (stereo not drawn) [ExA12]	0.5 to 10		≥ 10
CN1C(=O)S/C(=C\c2cc(OCC(=O)c3cnc(N)nc3)c(O)c(F)c2Br)C1=O [ExA10]	0.5 to 10		2.5 to 10
CN1C(=O)S/C(=C\c2cc(OCc3cccnc3)c(O)cc2Br)C1=O [Ex90]	≤ 0.5		2.5 to 10
COc1cc(/C=C2\SC(=O)N(C)C2=O)c(Br)cc1NS(=O)(=O)c1ccccn1 [Ex21]	≥ 10		2.5 to 10
COc1cc(/C=C2\Sc3ncccc3C2=O)c(Br)cc1O [Ex45]	≤ 0.5		2.5 to 10
CCOc1cc(/C=C2\SC(=O)N(C)C2=O)c(Br)cc1O [Ex32]	≤ 0.5		≤ 2.5
CC(Oc1cc(/C=C2\SC(=O)N(C)C2=O)c(Br)c(F)c1O)c1cncnc1N (stereo not drawn) [ExA18]	0.5 to 10		≥ 10
CN1C(=O)S/C(=C\c2cc(OCc3ccncc3)c(O)cc2Br)C1=O [Ex53]	0.5 to 10		≤ 2.5
CN1C(=O)S/C(=C\c2cc(OCc3cncnc3N)c(O)c(F)c2Br)C1=O [ExA17]	≤ 0.5		≥ 10
CN1C(=O)S/C(=C\c2cc(OCCc3cnc(N)nc3)c(O)cc2Br)C1=O [Ex82]	≤ 0.5		≤ 2.5
CN1C(=O)S/C(=C\c2cc(O)c(O)cc2Br)C1=O [Ex11]	≥ 10		2.5 to 10
CN1C(=O)S/C(=C\c2cc(OCC3CCN(C(=O)c4ccccc4)CC3)c(O)cc2Br)C1=O [Ex127]	0.5 to 10		
CC/N=C1/S/C(=C\c2cc(OC)c(O)cc2Br)C(=O)N1C [ExB23]	≥ 10		
COc1cc(/C=C2\SC(=O)N(C)C2=O)c(Br)c(Cl)c1O [Ex34]	0.5 to 10		
CC(C)c1cc(/C=C2\Sc3ncccc3C2=O)c(Br)cc1O [ExB19]	≥ 10		
C/N=C1/S/C(=C\c2cc(OC)c(O)cc2Br)C(=O)N1C [ExB22]	≥ 10		
COc1cc(/C=C2\SC(=O)N(C)C2=O)c(Br)cc1NS(=O)(=O)c1ccccc1 [Ex23]	≥ 10		

SMILES	IC50 [1] [µM]	IC50 [2] [µM]	IC50 [3] [µM]
COc1cc(/C=C2\SC(=O)N(C)C2=O)c(Cl)cc1O [Ex30]	≤ 0.5		≤ 2.5
COc1cc(/C(Br)=C2\SC(=O)N(C)C2=O)c(Br)cc1O [Ex20]	≥ 10		
CN1C(=O)S/C(=C\c2cc3oc(=O)[nH]c3cc2Br)C1=O [Ex25]	0.5 to 10		
CN1C(=O)S/C(=C\c2cc(OCc3ccc4cccnc4c3)c(O)cc2Br)C1=O [Ex175]	0.5 to 10		
COc1cc(/C=C2\Sc3ccccc3C2=O)c(Br)cc1O [Ex44]	0.5 to 10		≤ 2.5
Cc1cnccc1/C=C1\SC(=O)NC1=O [Ex3]	≤ 0.5		
O=C1/C(=C/c2cc(OCc3cnc(NCc4cccnc4)nc3)c(O)cc2Br)Sc2ncccc21 [Ex199]	≤ 0.5		
O=C1NC(=O)/C(=C2\CCCc3cnccc32)S1 [Ex5]	≤ 0.5		
CC(=O)c1cc(/C=C2\SC(=O)N(C)C2=O)c(Br)cc1Oc1cnc(N)s1 [ExB34]	≥ 10		
CN1C(=O)S/C(=C\c2cc(C(C)(F)F)c(O)cc2Br)C1=O [Ex210]	0.5 to 10		
CCC/N=C1/S/C(=C\c2cc(OC)c(O)cc2Br)C(=O)N1C [ExB24]	≥ 10		
CN1C(=O)S/C(=C\c2cc(OCC3CCN(C(=O)c4ccccn4)CC3)c(O)cc2Br)C1=O [Ex128]	0.5 to 10		
Cc1ncc(C(C)Oc2cc(/C=C3\SC(=O)N(C)C3=O)c(Br)cc2O)cn1 (stereo not drawn) [Ex180]	0.5 to 10		
O=C1/C(=C/c2ccc(O)cc2Br)Sc2ncccc21 [Ex71]	≤ 0.5		
CN1C(=O)S/C(=C\c2cc(OCc3cn(-c4ccccc4)nn3)c(O)cc2Br)C1=O [Ex232]	≥ 10		
CN1C(=O)S/C(=C\c2cc(OCc3cnc(N(C)C)nc3)c(O)cc2Br)C1=O [Ex162]	≥ 10		
Nc1ncc(/C=C/c2cc(/C=C3\Sc4ncccc4C3=O)c(Br)cc2O)cn1 [ExB42]	≤ 0.5		
O=C1/C(=C/c2cc3oc(=O)[nH]c3cc2Br)Sc2ncccc21 [Ex26]	0.5 to 10		
CN1C(=O)S/C(=C\c2cc(OCc3cnc(Nc4ccncc4)nc3)c(O)cc2Br)C1=O [Ex160]	≤ 0.5		
Cc1ncc(COc2cc(/C=C3\Sc4ncccc4C3=O)c(Br)cc2O)cn1 [Ex114]	≤ 0.5		2.5 to 10
CC(=O)c1cc(/C=C2\SC(=O)N(C)C2=O)c(Br)cc1O [Ex59]	0.5 to 10		
